The values below come from the NIST ThermoML archive (doi:10.1021/je4001894).

Numbers after ± are expanded uncertainties.

A short description of the series: activity coefficient (dimensionless); of the first substance listed, at infinite dilution; xn = mol fraction of the nth substance listed. The conditions noted are these: 101 kPa, Liquid, Chromatography, x1 = 0.

On to `CC(C)CC(C)(C)C` [2,2,4-trimethylpentane] + CCCC[N+]1(C)CCCC1.O=S(=O)([N-]S(=O)(=O)C(F)(F)F)C(F)(F)F, for which the activity coefficient is 19.2 ± 1.3 (323.15 K), 17.9 ± 1.2 (333.15 K) and 17.1 ± 1.2 (343.15 K).
For `C#CCCCC` [1-hexyne] + CCCC[N+]1(C)CCCC1.O=S(=O)([N-]S(=O)(=O)C(F)(F)F)C(F)(F)F the same measures were 2.89 ± 0.2, 2.87 ± 0.2 and 2.83 ± 0.19.
For `ClC(Cl)(Cl)Cl` [tetrachloromethane] + CCC[N+]1(C)CCCC1.O=S(=O)([N-]S(=O)(=O)C(F)(F)F)C(F)(F)F the same measures were 2.55 ± 0.17, 2.62 ± 0.18 and 2.64 ± 0.18.
On the same counts, the results for `ClCCl` [dichloromethane] + CCCC[N+]1(C)CCCC1.O=S(=O)([N-]S(=O)(=O)C(F)(F)F)C(F)(F)F are 0.66 ± 0.05, 0.7 ± 0.05 and 0.73 ± 0.05.
As to `CC#N` [acetonitrile] + CCCC[N+]1(C)CCCC1.O=S(=O)([N-]S(=O)(=O)C(F)(F)F)C(F)(F)F, the activity coefficient worked out at 0.52 ± 0.04 (323.15 K), 0.51 ± 0.04 (333.15 K) and 0.5 ± 0.04 (343.15 K).
On the same counts, the results for `CC(C)O` [propan-2-ol] + CCCC[N+]1(C)CCCC1.O=S(=O)([N-]S(=O)(=O)C(F)(F)F)C(F)(F)F are 1.9 ± 0.13, 1.72 ± 0.12 and 1.57 ± 0.1.
For `CCc1ccccc1` [ethylbenzene] + CCCC[N+]1(C)CCCC1.O=S(=O)([N-]S(=O)(=O)C(F)(F)F)C(F)(F)F the same measures were 1.83 ± 0.12, 1.85 ± 0.12 and 1.87 ± 0.13.
On the same counts, the results for `C#CCCCCC` [1-heptyne] + CCCC[N+]1(C)CCCC1.O=S(=O)([N-]S(=O)(=O)C(F)(F)F)C(F)(F)F are 3.98 ± 0.27, 3.98 ± 0.27 and 3.94 ± 0.27.
In the case of `CCCCO` [butan-1-ol] + CCCC[N+]1(C)CCCC1.O=S(=O)([N-]S(=O)(=O)C(F)(F)F)C(F)(F)F, the activity coefficient (323.15 K) turned out to be 2.59 ± 0.18, the activity coefficient (333.15 K) worked out at 2.32 ± 0.16 and the activity coefficient (343.15 K) was 2.08 ± 0.14.
For `Cc1ccc(C)cc1` [1,4-dimethylbenzene] + CCC[N+]1(C)CCCC1.O=S(=O)([N-]S(=O)(=O)C(F)(F)F)C(F)(F)F the same measures were 1.96 ± 0.13, 2 ± 0.14 and 2.03 ± 0.14.
For `C#CCCCC` [1-hexyne] + CCC[N+]1(C)CCCC1.O=S(=O)([N-]S(=O)(=O)C(F)(F)F)C(F)(F)F the same measures were 3.35 ± 0.23, 3.18 ± 0.22 and 3.01 ± 0.2.
For `CCCCCCCCC` [nonane] + CCC[N+]1(C)CCCC1.O=S(=O)([N-]S(=O)(=O)C(F)(F)F)C(F)(F)F the same measures were 55.5 ± 3.8, 48.7 ± 3.3 and 47.5 ± 3.2.
Take `CCCCCCCCCCCC` [dodecane] + CCCC[N+]1(C)CCCC1.O=S(=O)([N-]S(=O)(=O)C(F)(F)F)C(F)(F)F: the activity coefficient by setting is: (323.15 K) 105 ± 7.2; (333.15 K) 93.8 ± 6.4; (343.15 K) 83 ± 5.7.
On the same counts, the results for `C1COCCO1` [1,4-dioxane] + CCC[N+]1(C)CCCC1.O=S(=O)([N-]S(=O)(=O)C(F)(F)F)C(F)(F)F are 0.74 ± 0.05, 0.74 ± 0.05 and 0.76 ± 0.05.
On the same counts, the results for `C=CCCCC` [hex-1-ene] + CCC[N+]1(C)CCCC1.O=S(=O)([N-]S(=O)(=O)C(F)(F)F)C(F)(F)F are 7.96 ± 0.54, 7.75 ± 0.53 and 7.65 ± 0.52.
For the compound `ClCCl` [dichloromethane] + CCC[N+]1(C)CCCC1.O=S(=O)([N-]S(=O)(=O)C(F)(F)F)C(F)(F)F, the activity coefficient is 0.66 ± 0.05 (323.15 K), 0.72 ± 0.05 (333.15 K) and 0.78 ± 0.05 (343.15 K).
On the same counts, the results for `CCCCCCCCCCC` [undecane] + CCC[N+]1(C)CCCC1.O=S(=O)([N-]S(=O)(=O)C(F)(F)F)C(F)(F)F are 108 ± 7.4, 92.8 ± 6.4 and 85.1 ± 5.8.
With `C[N+](=O)[O-]` [nitromethane] + CCCC[N+]1(C)CCCC1.O=S(=O)([N-]S(=O)(=O)C(F)(F)F)C(F)(F)F, the activity coefficient runs as follows: (323.15 K) 0.65 ± 0.04; (333.15 K) 0.58 ± 0.04; (343.15 K) 0.57 ± 0.04.
On the same counts, the results for `CCCCCCCCCC` [decane] + CCC[N+]1(C)CCCC1.O=S(=O)([N-]S(=O)(=O)C(F)(F)F)C(F)(F)F are 74.7 ± 5.1, 65.7 ± 4.5 and 60 ± 4.1.
With `CCCCCCCCCCC` [undecane] + CCCC[N+]1(C)CCCC1.O=S(=O)([N-]S(=O)(=O)C(F)(F)F)C(F)(F)F, the activity coefficient is, setting by setting: (323.15 K) 76.9 ± 5.3; (333.15 K) 68.2 ± 4.7; (343.15 K) 61.1 ± 4.2.
As for `c1ccsc1` [thiophene] + CCCC[N+]1(C)CCCC1.O=S(=O)([N-]S(=O)(=O)C(F)(F)F)C(F)(F)F, the activity coefficient reads like this: (323.15 K) 0.82 ± 0.05; (333.15 K) 0.83 ± 0.05; (343.15 K) 0.84 ± 0.05.
For the compound `CC1CCCC1` [methylcyclopentane] + CCC[N+]1(C)CCCC1.O=S(=O)([N-]S(=O)(=O)C(F)(F)F)C(F)(F)F, the activity coefficient worked out at 10.3 ± 0.7 (323.15 K), 10.3 ± 0.7 (333.15 K) and 9.16 ± 0.63 (343.15 K).
Regarding `CCCCCCC` [heptane] + CCC[N+]1(C)CCCC1.O=S(=O)([N-]S(=O)(=O)C(F)(F)F)C(F)(F)F, the activity coefficient (323.15 K) stood at 24 ± 1.6, the activity coefficient (333.15 K) came to 23.1 ± 1.6 and the activity coefficient (343.15 K) came to 22.3 ± 1.5.
Turning to `CCCCCC` [hexane] + CCCC[N+]1(C)CCCC1.O=S(=O)([N-]S(=O)(=O)C(F)(F)F)C(F)(F)F, the activity coefficient (323.15 K) is 13.9 ± 0.95, the activity coefficient (333.15 K) amounted to 13.6 ± 0.93 and the activity coefficient (343.15 K) amounted to 12.6 ± 0.86.
For `CC(C)CO` [2-methyl-1-propanol] + CCCC[N+]1(C)CCCC1.O=S(=O)([N-]S(=O)(=O)C(F)(F)F)C(F)(F)F the same measures were 2.37 ± 0.16, 2.12 ± 0.14 and 1.92 ± 0.13.
On the same counts, the results for `CCCO` [propan-1-ol] + CCCC[N+]1(C)CCCC1.O=S(=O)([N-]S(=O)(=O)C(F)(F)F)C(F)(F)F are 2.07 ± 0.14, 1.87 ± 0.13 and 1.68 ± 0.11.
On the same counts, the results for `CCC[N+](=O)[O-]` [1-nitropropane] + CCCC[N+]1(C)CCCC1.O=S(=O)([N-]S(=O)(=O)C(F)(F)F)C(F)(F)F are 0.74 ± 0.05, 0.73 ± 0.05 and 0.73 ± 0.05.
Take `c1ccncc1` [pyridine] + CCC[N+]1(C)CCCC1.O=S(=O)([N-]S(=O)(=O)C(F)(F)F)C(F)(F)F: the activity coefficient was found to be 0.63 ± 0.04 (323.15 K), 0.63 ± 0.04 (333.15 K) and 0.64 ± 0.04 (343.15 K).
In the case of `CCCC(C)=O` [pentan-2-one] + CCC[N+]1(C)CCCC1.O=S(=O)([N-]S(=O)(=O)C(F)(F)F)C(F)(F)F, the activity coefficient amounted to 0.88 ± 0.06 (323.15 K), 0.88 ± 0.06 (333.15 K) and 0.91 ± 0.06 (343.15 K).
